Results taken from ChEMBL document CHEMBL2412996, “Increase of anti-HIV activity of C-peptide fusion inhibitors using a bivalent drug design approach” (Bioorg Med Chem Lett, 2013).
pIC50: −log10 of the molar value. Numbered stars: 1 amine (or outer) side, 2 acyl side, 3 side chain; on linkers, the order of the positions; unused ones are H or OH. Square brackets hold non-standard residues; d marks the D form. Peptide text beside a SMILES is read from it. * marks the point of attachment. X2 = CC(=O)N[C@@H](CS)C(=O)OCCOCCOCCN([C@@H](Cc1c[nH]c2ccccc12)C(=O)[*:2])[*:1]; X1 = CC(=O)N[C@@H](CS)C(=O)OCCOCCOCCNCCC(=O)*; Ahx = NCCCCCC(=O)O; βAla = NCCC(=O)O

Tests used:
TZM-bl = experiment: Inhibition of HIV1 HXB2 gp160-mediated cell-cell fusion between viral envelope expressing human HL2/3 cells to human TZM-bl cells expressing CD4, tat, and rev by luciferase reporter gene assay relative to C29; format: cell-based; conditions: Human immunodeficiency virus 1
[1] = Inhibition of HIV1 HXB2 gp160-mediated cell-cell fusion between viral envelope expressing human HL2/3 cells to human TZM-bl cells expressing CD4, tat, and rev by luciferase reporter gene assay; format: cell-based; conditions: Human immunodeficiency virus 1, HXB2, TZM-bl

Row | Compound | Ratio (TZM-bl) | pIC50 [1]
1 | CC[C@H](C)[C@H](NC(=O)[C@H](CC(C)C)NC(=O)[C@H](CO)NC(=O)[C@H](Cc1cnc[nH]1)NC(=O)[C@@H](NC(=O)[C@H](CC(C)C)NC(=O)[C@H](CO)NC(=O)[C@@H](NC(=O)[C@H](Cc1ccc(O)cc1)NC(=O)[C@H](CC(N)=O)NC(=O)[C@H](CC(N)=O)NC(=O)[C@@H](NC(=O)[C@H](CCC(=O)O)NC(=O)[C@H](CCCNC(=N)N)NC(=O)[C@H](CC(=O)O)NC(=O)[C@H](Cc1c[nH]c2ccccc12)NC(=O)[C@H](CCC(=O)O)NC(=O)[C@H](CCSC)NC(=O)[C@H](Cc1c[nH]c2ccccc12)NC(=O)[C@H](CS)NC(C)=O)[C@@H](C)CC)[C@@H](C)O)[C@@H](C)CC)C(=O)N[C@@H](CCC(=O)O)C(=O)N[C@@H](CCC(=O)O)C(=O)N[C@@H](CO)C(=O)N[C@@H](CCC(N)=O)C(=O)N[C@@H](CC(N)=O)C(=O)N[C@@H](CCC(N)=O)C(=O)N[C@@H](CCC(N)=O)C(=O)N[C@@H](CCC(=O)O)C(=O)N[C@@H](CCCCN)C(=O)N[C@@H](CC(N)=O)C(=O)O (Ac-CWMEWDREINNYTSLIHSLIEESQNQQEKN-OH) | 2.84 | 7.38
2 | CC[C@H](C)[C@H](NC(=O)[C@H](CC(C)C)NC(=O)[C@H](CO)NC(=O)[C@H](Cc1cnc[nH]1)NC(=O)[C@@H](NC(=O)[C@H](CC(C)C)NC(=O)[C@H](CO)NC(=O)[C@@H](NC(=O)[C@H](Cc1ccc(O)cc1)NC(=O)[C@H](CC(N)=O)NC(=O)[C@H](CC(N)=O)NC(=O)[C@@H](NC(=O)[C@H](CCC(=O)O)NC(=O)[C@H](CCCNC(=N)N)NC(=O)[C@H](CC(=O)O)NC(=O)[C@H](Cc1c[nH]c2ccccc12)NC(=O)[C@H](CCC(=O)O)NC(=O)[C@H](CCSC)NC(=O)[C@H](Cc1c[nH]c2ccccc12)NC(=O)CCCCCNC(=O)[C@H](CS)NC(C)=O)[C@@H](C)CC)[C@@H](C)O)[C@@H](C)CC)C(=O)N[C@@H](CCC(=O)O)C(=O)N[C@@H](CCC(=O)O)C(=O)N[C@@H](CO)C(=O)N[C@@H](CCC(N)=O)C(=O)N[C@@H](CC(N)=O)C(=O)N[C@@H](CCC(N)=O)C(=O)N[C@@H](CCC(N)=O)C(=O)N[C@@H](CCC(=O)O)C(=O)N[C@@H](CCCCN)C(=O)N[C@@H](CC(N)=O)C(=O)O (Ac-C[Ahx]WMEWDREINNYTSLIHSLIEESQNQQEKN-OH) | 2.41 | 7.31
3 | CC[C@H](C)[C@H](NC(=O)[C@H](CC(C)C)NC(=O)[C@H](CO)NC(=O)[C@H](Cc1cnc[nH]1)NC(=O)[C@@H](NC(=O)[C@H](CC(C)C)NC(=O)[C@H](CO)NC(=O)[C@@H](NC(=O)[C@H](Cc1ccc(O)cc1)NC(=O)[C@H](CC(N)=O)NC(=O)[C@H](CC(N)=O)NC(=O)[C@@H](NC(=O)[C@H](CCC(=O)O)NC(=O)[C@H](CCCNC(=N)N)NC(=O)[C@H](CC(=O)O)NC(=O)[C@H](Cc1c[nH]c2ccccc12)NC(=O)[C@H](CCC(=O)O)NC(=O)[C@H](CCSC)NC(=O)[C@H](Cc1c[nH]c2ccccc12)NC(=O)CCNC(=O)[C@H](CS)NC(C)=O)[C@@H](C)CC)[C@@H](C)O)[C@@H](C)CC)C(=O)N[C@@H](CCC(=O)O)C(=O)N[C@@H](CCC(=O)O)C(=O)N[C@@H](CO)C(=O)N[C@@H](CCC(N)=O)C(=O)N[C@@H](CC(N)=O)C(=O)N[C@@H](CCC(N)=O)C(=O)N[C@@H](CCC(N)=O)C(=O)N[C@@H](CCC(=O)O)C(=O)N[C@@H](CCCCN)C(=O)N[C@@H](CC(N)=O)C(=O)O (Ac-C[βAla]WMEWDREINNYTSLIHSLIEESQNQQEKN-OH) | 6.01 | 7.71
4 | CC[C@H](C)[C@H](NC(=O)[C@H](CC(C)C)NC(=O)[C@H](CCC(=O)O)NC(=O)[C@H](CCC(=O)O)NC(=O)[C@@H](NC(=O)[C@H](CCCCN)NC(=O)[C@H](CCCCN)NC(=O)[C@@H](NC(=O)[C@H](Cc1ccc(O)cc1)NC(=O)[C@H](CCC(=O)O)NC(=O)[C@H](CCC(=O)O)NC(=O)[C@@H](NC(=O)[C@H](CCCCN)NC(=O)[C@H](CCCCN)NC(=O)[C@H](CC(=O)O)NC(=O)[C@H](Cc1c[nH]c2ccccc12)NC(=O)[C@H](CCC(=O)O)NC(=O)[C@H](CCC(=O)O)NC(=O)[C@H](Cc1c[nH]c2ccccc12)NC(C)=O)[C@@H](C)CC)[C@@H](C)O)[C@@H](C)CC)C(=O)N[C@@H](CCCCN)C(=O)N[C@@H](CCCCN)C(=O)N[C@@H](CO)C(=O)O (Ac-WEEWDKKIEEYTKKIEELIKKS-OH) |  | 6.46
5 | CC[C@H](C)[C@H](NC(=O)[C@H](CC(C)C)NC(=O)[C@H](CO)NC(=O)[C@H](Cc1cnc[nH]1)NC(=O)[C@@H](NC(=O)[C@H](CC(C)C)NC(=O)[C@H](CO)NC(=O)[C@@H](NC(=O)[C@H](Cc1ccc(O)cc1)NC(=O)[C@H](CC(N)=O)NC(=O)[C@H](CC(N)=O)NC(=O)[C@@H](NC(=O)[C@H](CCC(=O)O)NC(=O)[C@H](CCCNC(=N)N)NC(=O)[C@H](CC(=O)O)NC(=O)[C@H](Cc1c[nH]c2ccccc12)NC(=O)[C@H](CCC(=O)O)NC(=O)[C@H](CCSC)NC(=O)[C@H](Cc1c[nH]c2ccccc12)NC(C)=O)[C@@H](C)CC)[C@@H](C)O)[C@@H](C)CC)C(=O)N[C@@H](CCC(=O)O)C(=O)N[C@@H](CCC(=O)O)C(=O)N[C@@H](CO)C(=O)O (Ac-WMEWDREINNYTSLIHSLIEES-OH) |  | 5.91
6 | CC[C@H](C)[C@H](NC(=O)[C@H](CC(C)C)NC(=O)[C@H](CO)NC(=O)[C@H](Cc1cnc[nH]1)NC(=O)[C@@H](NC(=O)[C@H](CC(C)C)NC(=O)[C@H](CO)NC(=O)[C@@H](NC(=O)[C@H](Cc1ccc(O)cc1)NC(=O)[C@H](CC(N)=O)NC(=O)[C@H](CC(N)=O)NC(=O)[C@@H](NC(=O)[C@H](CCC(=O)O)NC(=O)[C@H](CCCNC(=N)N)NC(=O)[C@H](CC(=O)O)NC(=O)[C@H](Cc1c[nH]c2ccccc12)NC(=O)[C@H](CCC(=O)O)NC(=O)[C@H](CCSC)NC(=O)[C@H](Cc1c[nH]c2ccccc12)NC(C)=O)[C@@H](C)CC)[C@@H](C)O)[C@@H](C)CC)C(=O)N[C@@H](CCC(=O)O)C(=O)N[C@@H](CCC(=O)O)C(=O)N[C@@H](CO)C(=O)N[C@@H](CCC(N)=O)C(=O)N[C@@H](CC(N)=O)C(=O)N[C@@H](CCC(N)=O)C(=O)N[C@@H](CCC(N)=O)C(=O)N[C@@H](CCC(=O)O)C(=O)N[C@@H](CCCCN)C(=O)N[C@@H](CC(N)=O)C(=O)O (Ac-WMEWDREINNYTSLIHSLIEESQNQQEKN-OH) |  | 6.93
7 | CC[C@H](C)[C@H](NC(=O)[C@H](CC(C)C)NC(=O)[C@H](CO)NC(=O)[C@H](Cc1cnc[nH]1)NC(=O)[C@@H](NC(=O)[C@H](CC(C)C)NC(=O)[C@H](CO)NC(=O)[C@@H](NC(=O)[C@H](Cc1ccc(O)cc1)NC(=O)[C@H](CC(N)=O)NC(=O)[C@H](CC(N)=O)NC(=O)[C@@H](NC(=O)[C@H](CCC(=O)O)NC(=O)[C@H](CCCNC(=N)N)NC(=O)[C@H](CC(=O)O)NC(=O)[C@H](Cc1c[nH]c2ccccc12)NC(=O)[C@H](CCC(=O)O)NC(=O)[C@H](CCSC)NC(=O)[C@H](Cc1c[nH]c2ccccc12)NC(C)=O)[C@@H](C)CC)[C@@H](C)O)[C@@H](C)CC)C(=O)N[C@@H](CCC(=O)O)C(=O)N[C@@H](CCC(=O)O)C(=O)N[C@@H](CO)C(=O)N[C@@H](CCC(N)=O)C(=O)N[C@@H](CC(N)=O)C(=O)N[C@@H](CCC(N)=O)C(=O)N[C@@H](CCC(N)=O)C(=O)N[C@@H](CCC(=O)O)C(=O)N[C@@H](CCCCN)C(=O)N[C@@H](CC(N)=O)C(=O)NCCCCCC(=O)N[C@@H](CS)C(=O)O (Ac-WMEWDREINNYTSLIHSLIEESQNQQEKN[Ahx]C-OH) | 0.58 | 6.69
8 | CC[C@H](C)[C@H](NC(=O)[C@H](CC(C)C)NC(=O)[C@H](CO)NC(=O)[C@H](Cc1cnc[nH]1)NC(=O)[C@@H](NC(=O)[C@H](CC(C)C)NC(=O)[C@H](CO)NC(=O)[C@@H](NC(=O)[C@H](Cc1ccc(O)cc1)NC(=O)[C@H](CC(N)=O)NC(=O)[C@H](CC(N)=O)NC(=O)[C@@H](NC(=O)[C@H](CCC(=O)O)NC(=O)[C@H](CCCNC(=N)N)NC(=O)[C@H](CC(=O)O)NC(=O)[C@H](Cc1c[nH]c2ccccc12)NC(=O)[C@H](CCC(=O)O)NC(=O)[C@H](CCSC)NC(=O)[C@H](Cc1c[nH]c2ccccc12)NCCOCCOCCOC(=O)[C@H](CS)NC(C)=O)[C@@H](C)CC)[C@@H](C)O)[C@@H](C)CC)C(=O)N[C@@H](CCC(=O)O)C(=O)N[C@@H](CCC(=O)O)C(=O)N[C@@H](CO)C(=O)N[C@@H](CCC(N)=O)C(=O)N[C@@H](CC(N)=O)C(=O)N[C@@H](CCC(N)=O)C(=O)N[C@@H](CCC(N)=O)C(=O)N[C@@H](CCC(=O)O)C(=O)N[C@@H](CCCCN)C(=O)N[C@@H](CC(N)=O)C(=O)O (H-[X2]MEWDREINNYTSLIHSLIEESQNQQEKN-OH) | 7.69 | 7.81
9 | CC[C@H](C)[C@H](NC(=O)[C@H](CC(C)C)NC(=O)[C@H](CO)NC(=O)[C@H](Cc1cnc[nH]1)NC(=O)[C@@H](NC(=O)[C@H](CC(C)C)NC(=O)[C@H](CO)NC(=O)[C@@H](NC(=O)[C@H](Cc1ccc(O)cc1)NC(=O)[C@H](CC(N)=O)NC(=O)[C@H](CC(N)=O)NC(=O)[C@@H](NC(=O)[C@H](CCC(=O)O)NC(=O)[C@H](CCCNC(=N)N)NC(=O)[C@H](CC(=O)O)NC(=O)[C@H](Cc1c[nH]c2ccccc12)NC(=O)[C@H](CCC(=O)O)NC(=O)[C@H](CCSC)NC(=O)[C@H](Cc1c[nH]c2ccccc12)NC(=O)CCNCCOCCOCCOC(=O)[C@H](CS)NC(C)=O)[C@@H](C)CC)[C@@H](C)O)[C@@H](C)CC)C(=O)N[C@@H](CCC(=O)O)C(=O)N[C@@H](CCC(=O)O)C(=O)N[C@@H](CO)C(=O)N[C@@H](CCC(N)=O)C(=O)N[C@@H](CC(N)=O)C(=O)N[C@@H](CCC(N)=O)C(=O)N[C@@H](CCC(N)=O)C(=O)N[C@@H](CCC(=O)O)C(=O)N[C@@H](CCCCN)C(=O)N[C@@H](CC(N)=O)C(=O)O (X1-WMEWDREINNYTSLIHSLIEESQNQQEKN-OH) | 8.08 | 7.83
